Results taken from ChEMBL document CHEMBL1764952, “A novel application of DDQ as electrophile in the Nenitzescu reaction” (Bioorg Med Chem, 2011).
Values belong to the compound of their own block, whether it stands above or below them.

What was measured:
[1] = target: T1, Casein kinase II (Homo sapiens) (UniProt P67870+P68400+P19784); assay: Inhibition of human recombinant CK2 using RRRDDDSDDD-EDANS peptide substrate at 10 µM by capillary electrophoresis analysis
OVCAR-5 = assay: Antitumor activity against human OVCAR5 cells assessed as growth inhibition; assay type: functional
[2] = Antitumor activity against human NCI-ADR-RES cells assessed as growth inhibition; assay type: functional
[3] = target: T1, Casein kinase II (Homo sapiens); assay: Inhibition of human recombinant CK2 using RRRDDDSDDD-EDANS peptide substrate at […] by capillary electrophoresis analysis; assay type: protein-complex assay
DU-145 = assay: Antitumor activity against human DU145 cells assessed as growth inhibition; assay type: functional
Homo sapiens = species on record: Homo sapiens; assay: Antitumor activity against human lymphoma assessed as growth inhibition at 27 uM; assay type: functional
Casein kinase II = Casein kinase II (Homo sapiens, UniProt P19784+P67870+P68400); assay: Inhibition of human recombinant CK2 using RRRDDDSDDD-EDANS peptide substrate by capillary electrophoresis analysis; assay type: protein-complex assay
HOP-92 = assay: Antitumor activity against human HOP92 cells assessed as growth inhibition; assay type: functional

Casein kinase II, sequence (P67870 whole entry): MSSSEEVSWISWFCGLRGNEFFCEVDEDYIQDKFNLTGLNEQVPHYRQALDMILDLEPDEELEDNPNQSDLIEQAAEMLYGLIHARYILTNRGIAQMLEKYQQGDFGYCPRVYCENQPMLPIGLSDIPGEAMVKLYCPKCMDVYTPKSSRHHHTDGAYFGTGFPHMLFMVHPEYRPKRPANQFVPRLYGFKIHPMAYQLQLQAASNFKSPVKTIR
Casein kinase II, sequence (P68400 whole entry): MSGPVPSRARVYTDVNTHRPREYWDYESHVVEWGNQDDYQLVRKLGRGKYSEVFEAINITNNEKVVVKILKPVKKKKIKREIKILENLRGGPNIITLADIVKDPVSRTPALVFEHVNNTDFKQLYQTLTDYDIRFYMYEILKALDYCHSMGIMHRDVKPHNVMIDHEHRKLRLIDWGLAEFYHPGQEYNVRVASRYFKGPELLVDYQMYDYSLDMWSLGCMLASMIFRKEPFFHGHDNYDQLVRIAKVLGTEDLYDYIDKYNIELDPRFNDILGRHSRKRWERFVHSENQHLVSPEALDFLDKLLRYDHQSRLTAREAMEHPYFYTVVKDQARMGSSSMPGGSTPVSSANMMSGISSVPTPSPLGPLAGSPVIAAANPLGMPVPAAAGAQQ
Casein kinase II, sequence (P19784 whole entry): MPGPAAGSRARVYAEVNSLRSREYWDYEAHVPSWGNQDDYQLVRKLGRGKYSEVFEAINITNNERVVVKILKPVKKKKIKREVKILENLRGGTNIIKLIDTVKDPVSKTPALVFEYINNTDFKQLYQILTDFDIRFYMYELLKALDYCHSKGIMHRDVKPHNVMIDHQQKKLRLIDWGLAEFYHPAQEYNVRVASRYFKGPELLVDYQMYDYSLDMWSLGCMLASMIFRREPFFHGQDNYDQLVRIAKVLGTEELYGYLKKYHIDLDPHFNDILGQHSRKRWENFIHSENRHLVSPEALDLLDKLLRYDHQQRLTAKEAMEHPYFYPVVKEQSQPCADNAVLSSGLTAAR

inhibition [1]: 39%
SMILES: CC(C)=CC(=O)c1coc2ccc(O)cc12

inhibition [1]: 0%
SMILES: CCOC(=O)c1oc2ccc(OC(C)=O)c(CNC(C)=O)c2c1NC(C)=O

GI50 (OVCAR-5): 2690 nM
SMILES: CCOC(=O)C1=C(C)N(Cc2ccc(Cl)cc2Cl)C(=N)C12C(=O)C(Cl)=C(Cl)C(O)=C2C#N (centres undefined)
GI50 [2]: 191 nM

inhibition [3]: 0%
SMILES: CCOC(=O)C1=C(C)N(Cc2ccc(Cl)cc2Cl)/C(=N\C(C)=O)C12C(=O)C(Cl)=C(Cl)C(OC(C)=O)=C2C#N (centres undefined)

GI50 (DU-145): 339 nM
SMILES: CCOC(=O)C1=C(C)N(c2ccc(Cl)cc2)C(=N)C12C(=O)C(Cl)=C(Cl)C(O)=C2C#N (centres undefined)

inhibition [1]: 93%
IC50 (Casein kinase II): 200 nM
SMILES: CC(=O)Oc1c(Cl)c(Cl)c2oc(C(=O)C=C(C)C)c(N)c2c1C#N
growth inhibition (GI) (Homo sapiens): > 99%

SMILES: CCOC(=O)C1=C(C)N(c2ccc(F)cc2F)C(=N)C12C(=O)C(Cl)=C(Cl)C(O)=C2C#N (centres undefined)
GI50 (HOP-92): 1780 nM

inhibition [1]: 69%
IC50 (Casein kinase II): 2400 nM
SMILES: CCOC(=O)c1oc2c(Cl)c(Cl)c(OC(C)=O)c(C#N)c2c1N

SMILES: CCOC(=O)C1=C(c2ccccc2)N(c2ccc(OC)cc2)C(=N)C12C(=O)C(Cl)=C(Cl)C(O)=C2C#N (centres undefined)
GI50 (HOP-92): 550 nM

inhibition [1]: > 96%
SMILES: CC(C)=CC(=O)c1oc2c(Cl)c(Cl)c(O)c(C#N)c2c1N
